In brackets after ≈: the same amount, converted by molar mass.
What was measured:
[1] = tested on: S. aureus NMI 2541 K MRSA; assay: Antibacterial activity against clinical MRSA: MIC/MBC; assay type: cell-based; conditions: Staphylococcus aureus, NMI 2541 K MRSA
Procedure: (§1) Direct antimicrobial activity was determined against the following standard strains: (1) Gram-positive cocci: methicillin-sensitive Staphylococcus aureus ATCC 6538P (MSSA), methicillin-resistant S. aureus subsp. aureus ATCC 43300 (MRSA), S. epidermidis ATCC 12228, Enterococcus faecium ATCC 6057, E. faecalis ATCC 29212, Bacillus subtilis ATCC 6633; (2) Gram-negative bacteria from Enterobacteriales order: Klebsiella pneumoniae ATCC 13883, Escherichia coli ATCC 25922, Enterobacter cloacae DSM 6234, Proteus mirabilis ATCC 12453, Serratia marcescens ATCC 13880; (3) Gram-negative non-fermentative rods: Acinetobacter baumannii ATCC 19606, Pseudomonas aeruginosa ATCC 27853, Stenotrophomonas maltophilia ATCC 12714, S. maltophilia ATCC 13637, Burkholderia cepacia ATCC 25416, Bordetella bronchiseptica ATCC 4617; (4) yeasts: Candida albicans ATCC 90028, C. krusei ATCC 6258, C. parapsilosis ATCC 22019, C. tropicalis (Castellani) Berkhout ATCC 750, C. tropicalis IBA 171, C. guilliermondii IBA 155, and Saccharomyces cerevisiae ATCC 9763. Moreover, 5 clinical strains of methicillin-resistant S. aureus were also included: NMI 664 K, NMI 1576 K, NMI 1712 K, NMI 1991 K, and NMI 2541 K. All strains were stored at −80 °C. Prior to testing, each bacterial strain was subcultured twice on tryptic soy agar TSA (bioMerieux) medium and yeast strains on Sabouraud dextrose agar (bioMerieux) for 24–48 h at 30 °C to ensure viability. The antimicrobial activity was evaluated as previously described[26] by the disc-diffusion method and the MIC determination assays according to the EUCAST (ref. [71] and [72]) and CLSI (ref. [53] and [73]) recommendations. Assessment of bactericidal (MBC) and fungicidal (MFC) activities was performed according to the CLSI recommendations.[54,74] The following reference agents were used: fluconazole (in the case of fungi), linezolid (for Gram-positive bacteria), and nitrofurantoin (for Gram-negative rods). The new benzosiloxaboroles were dissolved in DMSO (Sigma).

[2] = tested on: S. aureus NMI 664 K MRSA; assay: as above; assay type: cell-based; conditions: Staphylococcus aureus, NMI 664 K MRSA
Procedure: as §1

[3] = tested on: S. aureus NMI 1712 K MRSA; assay: as above; assay type: cell-based; conditions: Staphylococcus aureus, NMI 1712 K MRSA
Procedure: as §1

[4] = tested on: S. aureus NMI 1576 K MRSA; assay: as above; assay type: cell-based; conditions: Staphylococcus aureus, NMI 1576 K MRSA
Procedure: as §1

[5] = tested on: S. aureus NMI 1991 K MRSA; assay: as above; assay type: cell-based; conditions: Staphylococcus aureus, NMI 1991 K MRSA
Procedure: as §1

[6] = tested on: S. epidermidis ATCC 12228; assay: Antibacterial activity: MIC/MBC determination and disc-diffusion; assay type: cell-based; conditions: Staphylococcus epidermidis, ATCC12228, S. epidermidis ATCC 12228; for MIC: read-out: MIC
Outline: (§2)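 CLSI recommendations governed the MBC/MFC determination. MICs and inhibition zones were obtained by EUCAST/CLSI dilution and disc-diffusion methods, with compounds delivered in DMSO.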

[7] = tested on: E. faecalis ATCC 29212; assay: as above; assay type: cell-based; conditions: Enterococcus faecalis, ATCC29212, E. faecalis ATCC 29212; for MIC: read-out: MIC
Outline: as §2

[8] = tested on: E. faecium ATCC 6057; assay: as above; assay type: cell-based; conditions: Enterococcus faecium, ATCC6057, E. faecium ATCC 6057; for MIC: read-out: MIC
Outline: as §2

[9] = tested on: Human normal lung fibroblasts MRC-5; assay: MTT-based viability (cytotoxicity) assay; conditions: for IC50: Homo sapiens, MRC5, 48 h
Outline: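 MRC-5 pd30 human lung fibroblasts in supplemented MEME at 37 °C, 5% CO2; viability by MTT, absorbance 570 nm, triplicate, as percent of control cells. Selectivity index taken as IC50/MIC against S. aureus MRSA strains.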

[10] = tested on: Staphylococcus aureus, MSSA and MRSA strains; assay: Antibacterial activity against S. aureus strains (text summaries); assay type: cell-based; conditions: Staphylococcus aureus; lowest MBC values
Procedure: as §1

[11] = read-out: MBC (first MBC where Eagle effect)

| Structure (SMILES) | MBC [6] [µg/mL] | MIC [6] [µg/mL] | MBC [7] [µg/mL] | MIC [7] [µg/mL] | MIC [8] [µg/mL] | IC50 [9] [µg/mL] | MBC [10] [µg/mL] | viability of MRC-5 ([9]; 6.25 µg·mL−1, 48 h) | viability of MRC-5 ([9]; 12.5 µg·mL−1, 48 h) | viability of MRC-5 ([9]; 25 µg·mL−1, 48 h) | viability of MRC-5 ([9]; 50 µg·mL−1, 48 h) | viability of MRC-5 ([9]; 100 µg·mL−1, 48 h) | viability of MRC-5 ([9]; 200 µg·mL−1, 48 h) | viability of MRC-5 ([9]; 400 µg·mL−1, 48 h) | other results |
| --- | --- | --- | --- | --- | --- | --- | --- | --- | --- | --- | --- | --- | --- | --- | --- |
| C[Si]1(C)OB(O)c2ccc(SC(=O)c3ccc(C(F)(F)F)cc3)c(F)c21 [Compound 25, S-(7-Fluoro-3-hydroxy-1,1-dimethyl-1,3-dihydrobenzo[c][1,2,5]oxasilaborol-6-yl) 4-(trifluoromethyl)benzothioate] | 25 (≈ 62.5 µM) | 3.12 (≈ 7.8 µM) | 25 (≈ 62.5 µM) | 12.5 (≈ 31.2 µM) | 12.5 (≈ 31.2 µM) | 112 (≈ 279 µM) | 25 to 50 (≈ 62.5 to 125 µM) |  |  |  |  |  |  |  | MBC [1, 11]: 25 µg/mL (≈ 62.5 µM); MIC ([1]; read-out: MIC): 12.5 µg/mL (≈ 31.2 µM); MBC [2, 11]: 25 µg/mL (≈ 62.5 µM); MIC ([2]; read-out: MIC): 12.5 µg/mL (≈ 31.2 µM); MBC [3, 11]: 25 µg/mL (≈ 62.5 µM); MIC ([3]; read-out: MIC): 12.5 µg/mL (≈ 31.2 µM); MBC [4, 11]: 50 µg/mL (≈ 125 µM); MIC ([4]; read-out: MIC): 25 µg/mL (≈ 62.5 µM); MBC [5, 11]: 50 µg/mL (≈ 125 µM); MIC ([5]; read-out: MIC): 25 µg/mL (≈ 62.5 µM); MBC [8]: > 50 µg/mL |
| C[Si]1(C)OB(O)c2cc(F)c(S(=O)(=O)N3CCOCC3)c(F)c21 [Compound 29, 5,7-Difluoro-1,1-dimethyl-6-(morpholinosulfonyl)benzo[c][1,2,5]oxasilaborol-3(1H)-ol] |  | 400 (≈ 1100 µM) |  | > 400 | 400 (≈ 1100 µM) | > 400 |  | 90.1±3.4 % of control ± SD | 90.6±4.5 % of control ± SD | 86.8±4.3 % of control ± SD | 80.8±3.4 % of control ± SD | 74.1±0.5 % of control ± SD | 69.6±2.4 % of control ± SD | 60.4±5.2 % of control ± SD |  |
| C[Si]1(C)OB(O)c2ccc(S)c(F)c21 [Compound 2e, 7-Fluoro-6-mercapto-1,1-dimethylbenzo[c][1,2,5]oxasilaborol-3(1H)-ol] | 25 (≈ 110 µM) | 6.25 (≈ 27.4 µM) |  | 12.5 (≈ 54.8 µM) | 12.5 (≈ 54.8 µM) |  | 25 to 50 (≈ 110 to 219 µM) |  |  |  |  |  |  |  |  |
| C[Si]1(C)OB(O)c2cc(F)c(SC3CC(=O)N(c4ccc(Br)c(C(F)(F)F)c4)C3=O)c(F)c21 (centres unmarked) [Compound 16, 1-(4-Bromo-3-(trifluoromethyl)phenyl)-3-((5,7-difluoro-3-hydroxy-1,1-dimethyl-1,3-dihydrobenzo[c][1,2,5]oxasilaborol-6-yl)thio)pyrrolidine-2,5-dione] | 100 (≈ 177 µM) | 50 (≈ 88.3 µM) | 200 (≈ 353 µM) | 25 (≈ 44.2 µM) | 50 (≈ 88.3 µM) | 76.2 (≈ 135 µM) |  | 97.0±0.2 % of control ± SD | 84.8±2.7 % of control ± SD | 78.5±1.6 % of control ± SD | 62.7±2.5 % of control ± SD | 46.0±1.4 % of control ± SD | 0.4±0.2 % of control ± SD | 0.1±0.0 % of control ± SD |  |
